Converted amounts (≈) assume the structure as drawn. Read-outs that look alike come from different tables or passages of the source.
How the values were obtained:
Type in all cases: physicochemical
[1] = Solubility of the allosteric effector compound in water and stabilizing agent solutions
Method: (§1) The pKa for 2-[4-[2-[(3,5-dimethylphenyl)amino]-2-oxoethyl]phenoxy]-2-methyl-propionic acid is about 3.5. Accordingly, there is an appreciable solubility at a pH of 7. The solubility of the sodium salt of 2-[4-[2-[(3,5-dimethylphenyl)amino]-2-oxoethyl]phenoxy]-2-methyl-propionic acid at a pH of 7 is about 50 mg/ml. […] It is thought that the addition of a stabilizing agent maintains the integrity of this small aggregate-like species.
This unforeseen problem of formation of particulate matter at concentrations beneath the solubility of the compound is solved by the addition of a stabilizing agent. The effect of the stabilizing agent is to prevent or minimize the formation of sub-visual particulates. In some embodiments, the stabilizing agent may also act as a buffer to stabilize the pH of the solution. In other embodiments, the stabilizing agent and buffering agent are different. The stabilizing agent acts to prevent the formation of significant amounts of sub-visual particulate matter, particularly after heat sterilization. The result is a formulation that can be terminally sterilized, have a long shelf life, and meet the USP 25 <788> sub-visual particulate matter requirements. Without being bound by theory, it is believed that stabilization of pH is one factor contributing to stabilization of the formulation; however, the pH of the solution alone is insufficient to stabilize the solutions. […] If necessary, the pH of the solution can be adjusted to a pH of at least about 6, preferably from about 6 to about 11. More preferably, the pH is adjusted to about 6.5 to about 9.0. More preferably, the pH is adjusted to about 7.5 to 8.5. The pH may be adjusted by the addition of any appropriate acid or base. Suitable acids may be amino acids, carboxylic acids, phosphoric acid, hydrochloric acid or other acids suitable for pharmaceutical preparations. Suitable bases include, sodium hydroxide or other bases suitable for pharmaceutical preparations.
Accordingly, stabilizing agents having an amine group are contemplated within the scope of this invention.

[2] = pKa
Method: as §1

[3] = Chemical and physical (precipitate) stability of the formulation
Method: as §1
The allosteric modifying compound is chemically and physically stable between a pH of about 6 and about 11. Preferably, the composition has a pH of at least about 6. More preferably, the composition has a pH ranging from about 6 to about 11. Most preferably, the composition has a pH ranging from about 6.5 to about 9.0.
The composition of the present invention is chemically stable and stable with respect to the formation of particulate matter for at least about thirty days. This makes the composition particularly useful at the administration site because no additional steps, such as filtering the composition, are necessary prior to administration to a patient. Time is time after sterilization.

[4] = 20 mg/mL (58.7 mmol/L), pH 7.5, no stabilizing compound, heat sterilized

| Structure (SMILES) | solubility ([1]; aqueous buffer, 0.5 M arginine solution, 23° C., pH 7.2-7.5, read-out: solubility) | solubility ([1]; aqueous buffer, 0.5 M tris solution, 23° C., pH 7-8, read-out: solubility) | solubility ([1]; aqueous buffer, 100-200 mM meglumine solutions, 23° C., pH 7.5, read-out: increase in solubility) | solubility ([1]; in water, 23° C., read-out: solubility) | pKa [2] | chemical degradation [3, 4] | precipitate formation after heat sterilization [3, 4] | precipitation / subvisual particulate formation in solution ([3]; 20 mg/ml, pH about 7, 25° C.) | solubility ([1]; pH 7, aqueous buffer, pH of 7, read-out: solubility) |
| --- | --- | --- | --- | --- | --- | --- | --- | --- | --- |
| Cc1cc(C)cc(NC(=O)Cc2ccc(OC(C)(C)C(=O)O)cc2)c1 [2-[4-[2-[(3,5-dimethylphenyl)amino]-2-oxoethyl]phenoxy]-2-methyl-propionic acid] | 155 mg/mL (≈ 454 mM) | 99.9 mg/mL (≈ 293 mM) | ~12 mg/mL (≈ 35.1 mM) | ~44 mg/mL (≈ 129 mM) | ~3.5 | stable to chemical degradation | developed a precipitate of the allosteric modifier within one week after sterilization | begins to precipitate out of solution, forming subvisual particulate |  |
| Cc1cc(C)cc(NC(=O)Cc2ccc(OC(C)(C)C(=O)[O-])cc2)c1.[Na+] [sodium salt of 2-[4-[2-[(3,5-dimethylphenyl)amino]-2-oxoethyl]phenoxy]-2-methyl-propionic acid] |  |  |  |  |  |  |  |  | ~50 mg/mL |

From patent US20030232887A1, “Preparation and use of a stable formulation of allosteric effector compounds” (priority 2002, published 2003)
